Laboratory results from ChEMBL document CHEMBL3507680, “University of Dundee, Gates Library screen for HepG2 cell viability”.

Assay: Human HepG2 cell viability assay in 384 well format
Assay type: toxicity, cell-based
Set-up: dose 125 nL, time 70.5 hour; concentration not given beside the values
Conditions: HepG2 cells, read-out: Inhibition

SMILES | cytotoxicity at 70.5 h [%]
Cc1ccc(-c2nc(CC(=O)NCC(C)N3CCOCC3)cs2)o1 (stereo unspecified) | -3.4
Cn1ccnc1Sc1ncc(C(=O)N2CCCCC2)cc1Cl | -4.57
CCNC(=O)c1cnc(Sc2nccn2C)c(Cl)c1 | -2.03
O=C(c1cn(-c2ccc(C(F)(F)F)cn2)nn1)N1CCCCCC1 | -3.98
CC1CCN(C(=O)c2cn(-c3ccc(C(F)(F)F)cn3)nn2)CC1 | -0.268
CCc1ccc2c(c1)C(CCNC(=O)CSC(F)(F)F)C(=O)N2 (stereo unspecified) | -1.42
Cc1ccccc1CNc1ccc(S(N)(=O)=O)c(C(F)(F)F)c1 | 4.82
Cc1ccc(C(=O)N2CCCC(N(C)C(=O)OC(C)(C)C)C2)o1 (stereo unspecified) | 2.04
CC(c1ccccc1F)N(C(=O)CSCC(N)=O)C1CC1 (stereo unspecified) | 5.29
Cc1cc(NC(=O)c2ccc(N3CCOCC3)cc2)[nH]n1 | -1.56
Cc1nc(CNC(=O)CCCc2cccs2)no1 | -5.14
CC(=O)Nc1cc(F)c(S(=O)(=O)N(C)CC2CCC2)c(F)c1 | -0.0857
CCOc1cccc(CNC(=O)C(C)(C)C#N)c1OC(F)F | -2.64
CN(C(=O)OC(C)(C)C)C1CCN(C(=O)c2ccc(Cl)o2)C1 (stereo unspecified) | -3.64
C=C(C)CN(CC)S(=O)(=O)c1c(F)cc(NC(C)=O)cc1F | -3.3
COCCNc1nc(-c2ccc(S(=O)(=O)N3CCCCCC3)cc2)cs1 | -5.83
CC(C)N1CCCC(CNC(=O)Cc2csc(-c3cccnc3)n2)C1 (stereo unspecified) | -0.239
CC(C#N)CN(C)Cc1c(Cl)ccc2cccnc12 (stereo unspecified) | 23
Cc1nc(-c2cccs2)ccc1C(=O)N1CCN(CC(C)O)CC1 (stereo unspecified) | -2.84
CCn1cc(NC(=O)N2CCN(CCSc3ccccc3)CC2)cn1 | -7.68
O=C(CSc1nnc(N2CCCC2)s1)NC(=O)Nc1ccccc1 | -5.54
Cc1nnc2n1CCN(C(=O)c1ccc(Cn3cccc3)cc1)C2 | -7.82
Cc1ccc(NC(=O)N2CCC(CO)(Nc3ccccc3)CC2)cc1 | 17.1
Cc1cccc(NC(=O)N2CCC(CO)(Nc3ccccc3)CC2)c1 | -5.03

SMILES | cytotoxicity at 70.5 h [%]
O=C1NCCN1C1CCN(CC(O)c2ccccc2F)CC1 (stereo unspecified) | -7.23
Cc1ncccc1C(=O)Nc1cccc(C[S+](C)[O-])c1C (stereo unspecified) | 0.697
Cc1cc(C)c2ncc(C#N)c(NC3CCN(CC(N)=O)CC3)c2c1 | 1.44
CC(NC(=O)N1CCS(=O)(=O)CC1)c1c(F)cccc1Cl (stereo unspecified) | -4.16
O=C(Cc1c[nH]c2ncccc12)NCC(O)c1ccccc1F (stereo unspecified) | 15.1
CC(C)(CO)N1CCN(S(=O)(=O)CCCF)CC1 | -8.05
CN(CCOc1cccc(F)c1)CC(=O)Nc1ccncc1 | -10.9
CN(Cc1nnc(C2CC2)o1)Cc1ccccc1-c1ccccc1 | -9.25
CN1CCN(C2CCN(CC(O)c3ccccc3)CC2)C1=O (stereo unspecified) | 4.73
Cc1cc(CN2CCCN(c3ccc(C#N)cc3)CC2)no1 | -7.74
Cc1ccc(S(=O)(=O)N[C@H](CO)C(C)C)cc1N(C)C | -4.66
Cc1nccn1-c1ccc(NS(=O)(=O)c2cnn(C(C)C)c2)cn1 | -2.54
N#Cc1ncn(Cc2c(F)cccc2Cl)n1 | -5.34
CNc1nnc(SCc2nnc(C(C)(C)C)o2)s1 | 15.4
CCNc1nnc(SCc2nnc(C(C)(C)C)o2)s1 | -8.88
O=C(CS(=O)(=O)Cc1csc(-c2ccc(F)cc2)n1)NCC1CC1 | -6.8
O=C(Nc1cccnc1N1CCSCC1)c1ccc2c(c1)OCO2 | -4.23
NC(=O)CS(=O)(=O)Cc1csc(-c2ccc(F)cc2)n1 | 13.6
CS(=O)(=O)c1cc(C(=O)NS(=O)(=O)Cc2ccc(F)cc2)ccc1Cl | -3.9
CC(C)C(=O)Nc1cccc(OCC(=O)NCc2ccccc2F)c1 | -5.29
OCCOc1cc(F)ccc1NCc1ccc(F)c(F)c1 | -2.79
Cc1nnc2n1CCN(C(=O)C1CCN(Cc3ccccc3)CC1)C2 | 14.2
CN(CC(N)=O)Cc1csc(-c2ccc(F)cc2)n1 | -0.0734
Cc1nccn1-c1ccc(NS(=O)(=O)c2cnn(C)c2)cn1 | -4.84

SMILES | cytotoxicity at 70.5 h [%]
CNC(=O)CN(C)C1CCN(c2ccc(Cl)cc2)CC1 | 2.05
O=C(NS(=O)(=O)c1ccc(F)c(F)c1)c1cscn1 | 17.8
CC(C)CCc1noc(CN2CCCC(CNS(N)(=O)=O)C2)n1 (stereo unspecified) | -1.48
CC(C)Cc1noc(CN2CCCC(CNS(N)(=O)=O)C2)n1 (stereo unspecified) | -3.24
CCc1nc(CN2CCCN(C(=O)Cc3cccs3)CC2)cs1 | -6.45
CCOc1ccc(CNC2CCCN(c3cccnn3)C2)cc1OC (stereo unspecified) | 4.96
CCCNC(=O)CN(C)C1CCN(c2ccc(Cl)cc2)CC1 | -6.78
COc1cc2c(nn1)CCN(Cc1noc(CC(C)C)n1)C2 | -4.19
CC(C)Oc1cccc(CN(C)C(=O)Nc2cccn(C)c2=O)c1 | 2.82
O=C(CCC1CCCO1)NCCN1CCCCC1 (stereo unspecified) | -3.64
COCCNC(=O)N1CCOCC1c1c(C)nn(C)c1C (stereo unspecified) | -1.43
O=S(=O)(Cc1nc(C2CC2)no1)c1cc(F)ccc1F | -12.2
O=C(NCc1ccc(N2CCSCC2)cc1)NCc1cc[nH]n1 | -10.4
O=C(Nc1cccc(F)c1)NC1CCN(Cc2ccncc2)CC1 | -15.3
CN(C)c1ccc(C(=O)Nc2cnn(Cc3ccccn3)c2)cc1 | -9.41
CC(Oc1cccc(Cl)c1)C(=O)Nc1cnn(CCN(C)C)c1 (stereo unspecified) | 23.7
CN(C)c1cccc(C(=O)Nc2cnn(CC(N)=O)c2)c1 | -16.4
Cc1ccc(-c2nc(C(=O)N(C)CC(=O)N3CCCC3)cs2)c(C)c1 | -4.38
CN(C)c1cccc(C(=O)Nc2cnn(Cc3ccccn3)c2)c1 | -9.4
CCCN(CCC)C(=O)CN1CCCC1C(=O)N(C)C (stereo unspecified) | -5.85
CC(=O)NCc1ccc(C(=O)N2CCCc3c(F)ccc(C)c32)cc1 | -8.8
CN(c1ncc(S(N)(=O)=O)s1)C1CCC1 | -9.06
CCS(=O)(=O)NCC(=O)N(C1CC1)C1Cc2ccccc2C1 | -9.21
Cc1nn(C)c(C)c1C1COCCN1C(=O)CC(C)(C)C (stereo unspecified) | 24.2

SMILES | cytotoxicity at 70.5 h [%]
Cc1noc(CN(C)c2ccccc2)n1 | -13.6
COc1cccc(-c2nc(CNCCc3cccnc3)cs2)c1 | -19.3
CCN1CC(CN(C)c2cc(C)nc(N)n2)Oc2ccccc21 (stereo unspecified) | 17.6
CC(=O)c1cccc(OC(C)C(=O)Nc2cnn(CCN(C)C)c2)c1 (stereo unspecified) | -12.3
CCSc1cc(C(=O)N(Cc2cnn(C)c2)C(C)C)ccn1 | -11.4
CCC(CNC(=O)COC)Oc1cccc(F)c1 (stereo unspecified) | 14.9
COc1ccc(C)cc1C(C)NS(=O)(=O)c1ccc2c(c1)CCC(=O)N2 (stereo unspecified) | 8.83
CCN(CC1CCOC1)C(=O)Cn1nnn(-c2cccs2)c1=O (stereo unspecified) | -15.9
O=C(Cn1nnn(-c2cccs2)c1=O)NCC1CCOC1 (stereo unspecified) | 11.8
Cc1cc(C)c(CNC(=O)NCCNc2ncccn2)c(=O)[nH]1 | -12.7
CC(CC(=O)N1CCN(c2cnccn2)CC1)c1ccc(F)cc1 (stereo unspecified) | 0.499
Cc1nc2c(C#N)cnn2c(C)c1CCC(=O)N(C)C(C)C(C)C (stereo unspecified) | -11.8
Cc1cc(C)c(CNC(=O)NCCNc2cnccn2)c(=O)[nH]1 | -4.64
CCC(C#N)NC(=O)CCCOc1cccc(C(C)=O)c1 (stereo unspecified) | -11.3
O=C(NCc1nc(C2CC2)no1)N1CCOC(c2ccccc2F)C1 (stereo unspecified) | -3.4
CCN(C)S(=O)(=O)c1ccc(Cl)cc1C#N | -7.9
CCc1csc(C2CCCN(C(=O)c3ccc(=O)n(C)n3)C2)n1 (stereo unspecified) | -11.3
CC(C)c1csc(C2CCCN(C(=O)c3ccc[nH]3)C2)n1 (stereo unspecified) | -4.24
Cn1cccc(NC(=O)NCCOCc2ccccc2)c1=O | -13.2
CCS(=O)(=O)N1CCc2c(cccc2NCc2ncc[nH]2)C1 | -10
CC(C)SCc1cccc(NC(=O)NC(C)c2nc[nH]n2)c1 (stereo unspecified) | -7.97
O=C(NCc1nc(C2CC2)no1)N1CCOC(c2cccc(F)c2)C1 (stereo unspecified) | 0.958
CC(C)c1csc(C2CCCN(C(=O)c3ccc(=O)n(C)c3)C2)n1 (stereo unspecified) | -0.564
COCCOc1ncccc1C(=O)N(C)c1ccc(OC)c(OC)c1 | -11.7

SMILES | cytotoxicity at 70.5 h [%]
CCN(Cc1cccs1)S(=O)(=O)N(C)C(C)C | -18.1
Cc1ncccc1C(=O)NC1CC(=O)N(CC(F)(F)F)C1 (stereo unspecified) | -0.154
O=C(O)c1csc(S(=O)(=O)N2CCN(Cc3ccc(Cl)cc3)CC2)c1 | -12.5
O=C(O)c1csc(S(=O)(=O)N2CCN(Cc3c(F)cccc3Cl)CC2)c1 | -31.1
COC(=O)c1ccc(F)c(S(=O)(=O)Nc2ccc(C(N)=O)cc2)c1 | -16.7
COC(=O)c1cccc(S(=O)(=O)Nc2ccc(Cl)c(C(N)=O)c2)c1 | -12.3
O=C(NCCOc1ccc(F)cc1)C1CCCN(C(=O)C2CC2)C1 (stereo unspecified) | -17.7
CCC(CC)C(=O)NS(=O)(=O)CCc1ccccc1 | -23.7
CC(C)c1nnc(CN2CCCC2C(=O)OCc2ccccc2)o1 (stereo unspecified) | -10.4
NC(=O)N1CCCC(C(=O)NCCOc2ccc(F)c(F)c2)C1 (stereo unspecified) | -12.7
Cc1ccoc1CNC(C)c1nnc2n1CCCC2 (stereo unspecified) | 13
Cc1ccc(CNC(C)c2nnc3n2CCCC3)o1 (stereo unspecified) | -8.48
COCCS(=O)(=O)NC(=O)c1nnn(-c2ccc(F)cc2)c1C1CC1 | 2
CS(=O)(=O)c1ccc(NC(=O)CSc2ccc3c(c2)CCC3)cc1 | 1.38
CCN1CCCC(CNC(=O)CCc2ccc(OC)c(F)c2)C1 (stereo unspecified) | -14.6
CNC(=O)C(NC(=O)c1c(C)noc1C)c1ccc(F)c(F)c1 (stereo unspecified) | 2.39
CCOc1c(OC)cc(/C=C/c2ncc(C(=O)NC)s2)cc1OC | -7.3
CN(C)C(=O)C1CCN(c2cncc(-n3cccn3)n2)CC1 | 10.2
CNC(=O)c1cnc(/C=C/c2cc(OC)c3c(c2)OCCO3)s1 | -6.59
CN(CC(=O)Nc1ccncc1)CC1CCCN1c1cccnn1 (stereo unspecified) | -11.4
